Results reported in patent US20150284360A1, “AMIDE DERIVATIVES OF ANILINE-RELATED COMPOUNDS AND COMPOSITIONS THEREOF” (C&C BIOPHARMA, LLC, priority 2014, published 2015).

Key:
[1] = In vivo conversion of prodrug Lys-CC30.2HCl to parent drug CC30 in a rat after intravenous administration (plasma, HPLC-MS); design: species or system Sprague-Dawley rat; details: for HPLC-MS Peak Area of Prodrug, Lys-CC30•2HCl in the rat: rat plasma, Lys-CC30.2HCl 2 mg/kg intravenous
Description: A Male Sprague-Dawley rat weighing 200-220 g was used to study the pharmacokinetics of the prodrug Lys-CC30.2HCl. Food was prohibited for 12 hours before the experiment, but water was freely available. Blood samples (0.2 ml) were collected through orbital venous plexus blood into heparinized 1.5 ml polyethene tubes at 0, 2, 5, 10, 15, 20, 30, 45 and 60 minute time points after the intravenous administration of Lys-CC30.2HCl (2 mg/kg). The samples were immediately centrifuged at 3000 g for 10 minutes. The plasma obtained (100 μl) was stored at −20° C. until analyzed. Plasma Lys-CC30.2HCl and parent drug CC30 concentrations in the collected blood samples were analyzed by HPLC-MS.
The parent drug was detected in the rat for at least 60 minutes, whereas the prodrug was no longer detected after 20 minutes (Table 11)(FIG. 10B).

[2] = Cyclization in simulated gastric fluid (SGF), acidic condition; format: physicochemical; details: SGF pH=1.3 with pepsin, 37° C., 4 hours
Description: Simulated gastric fluid (SGF) was prepared by thoroughly mixing diluted hydrochloric acid (16.4 ml), water (800 ml), and 10 g of pepsin together, and then bring the volume up to 1000 ml with water (pH=1.3). Diluted hydrochloric acid was prepared by mixing 234 ml of concentrated hydrochloric acid with water to a final volume of 1000 ml. Lys-CC30.2HCl (2.53 mg) or CC30 were separately dissolved in 200 μl of water to obtain an aqueous solution concentration of 12.6 mg/ml. 4 μl of the Lys-CC30.2HCl solution and the CC30 solution were thoroughly mixed with 1 ml of SGF in separate tubes. The mixtures were placed in an incubator at 37° C. for 4 hours. The samples were diluted with water 50-fold, mixed, and pelleted by centrifugation at 4° C. and 14,000 rpm for 5 min. The supernatants (˜200-300 μl) were used for HPLC-MS analysis.

[3] = Solubility of a compound in water; format: physicochemical; details: compound added until saturated
Description: Solubility of a compound was obtained by adding the compound into water of known volume (e.g. 1 mL) until saturated, measuring the amount of the compound added, and obtaining the solubility of the compound in water (mg/mL) (Table 9).

[4] = In vitro conversion of prodrug Lys-CC30.2HCl to parent drug CC30 in rat plasma (HPLC-MS); format: in vitro ADME; details: rat plasma
Description: Lys-CC30.2HCl (2.53 mg) was dissolved in 200 μl of water to obtain an aqueous solution concentration of 12.6 mg/ml. 4 μl of the Lys-CC30.2HCl solution was thoroughly mixed with 100 μl of rat plasma. This mixture was divided into 10 aliquots (10 μl) placed in 1.5 ml tubes. One tube was placed on ice and was used as the 0 time point. The other 9 samples were placed in an incubator at 37° C. At 5, 10, 30, 60, 120, and 240 minutes, a tube was taken out from incubation and placed on ice to stop or slow down the reaction. The samples were diluted with water (50-fold), mixed, and pelleted by centrifugation at 4° C. and 14,000 rpm for 5 min. The supernatant (˜200-300 μl) was used for HPLC-MS analysis. The % conversion was calculated by dividing the peak area of the parent drug by the peak area of the prodrug at time 0, and then multiplying by 100 (Table 10).
After 60 minutes of incubation, almost half (44.7%) of the Lys-CC30.2HCl prodrug converted to CC30 (Table 10).

In the case of Cl.Cl.NCCCC[C@H](N)C(=O)Nc1ccccc1NC(=O)CCCCCC(=O)Nc1cccc(Br)c1 [Lys-CC30•2HCl], the “Time after which the prodrug was no longer detected in the rat” value ([1]; after Lys-CC30.2HCl 2 mg/kg intravenous) was 20 min, the “Conversion in the rat to the parent drug CC30 (in words)” value ([1]; after injection of Lys-CC30.2HCl 2 mg/kg intravenous, time zero) was “immediately started converting” and the “HPLC-MS Peak Area of Prodrug, Lys-CC30•2HCl in the rat” value (“HPLC-MS Peak Area … in the rat” below) ([1]; 0 min) was 5199661. The “HPLC-MS Peak Area … in the rat” value ([1]; 2 min) was 2388965, the “HPLC-MS Peak Area … in the rat” value ([1]; 5 min) was 838012 and the “HPLC-MS Peak Area … in the rat” value ([1]; 10 min) was 173555. For the same compound, the “HPLC-MS Peak Area … in the rat” value ([1]; 15 min) was 40200, the “HPLC-MS Peak Area … in the rat” value ([1]; 20 min) was 8674 and the “Formation of cyclized product (in words)” value [2] was “No similarly cyclized product was formed”. For the same compound, the “Solubility in Water” value [3] was 750 mg/mL, the “% Conversion of prodrug to CC30” value ([4]; 37° C., 5 min) was 14.2% and the “HPLC-MS Peak Area of Prodrug, Lys-CC30•2HCl” value ([4]; 37° C., 5 min) was 5900784. The “% Conversion of prodrug to CC30” value ([4]; 37° C., 10 min) was 18.3%, the “HPLC-MS Peak Area of Prodrug, Lys-CC30•2HCl” value ([4]; 37° C., 10 min) was 5623041 and the “% Conversion of prodrug to CC30” value ([4]; 37° C., 30 min) was 33.0%. The “HPLC-MS Peak Area of Prodrug, Lys-CC30•2HCl” value ([4]; 37° C., 30 min) was 5199304, the “% Conversion of prodrug to CC30” value ([4]; 37° C., 60 min) was 44.7% and the “HPLC-MS Peak Area of Prodrug, Lys-CC30•2HCl” value ([4]; 37° C., 60 min) was 3678701. For the same compound, the “% Conversion of prodrug to CC30” value ([4]; 37° C., 60 min, listed as Lys-CC30.2HCl) was 44.7%, the “% Conversion of prodrug to CC30” value ([4]; 37° C., 120 min) was 69.2% and the “HPLC-MS Peak Area of Prodrug, Lys-CC30•2HCl” value ([4]; 37° C., 120 min) was 921181. The “% Conversion of prodrug to CC30” value ([4]; 37° C., 240 min) was 71.8%, the “HPLC-MS Peak Area of Prodrug, Lys-CC30•2HCl” value ([4]; 37° C., 240 min) was 498331 and the “HPLC-MS Peak Area of Prodrug, Lys-CC30•2HCl” value ([4]; 37° C., time 0 min (on ice)) was 6182672. The “% Conversion of prodrug to CC30” value ([4]; time 0 min, parent peak area / prodrug peak area at time 0 x 100) was 10.0%.
